# Data published in patent publication US20220378923A1, “BET DEGRADER” (KYOWA KIRIN CO., LTD., priority 2019, published 2022).
# Assays:
# [1] = tested on: SU-DHL-4 subcutaneously transplanted tumor; assay: Antitumor effect on subcutaneous transplant model in SCID mouse, DLBCL strain SU-DHL-4, compound 1a (Test Example 3); type: in vivo; conditions: for T/C: V/V0 of group divided by vehicle group; for Body Weight / Tumor Volume (mm^3): male SCID mouse; for Body Weight / V/V0 (tumor growth rate) / Tumor Volume (mm^3): mean of n=5; for Tumor Volume (mm^3): compound 1a 3 mg/kg i.v. (tail vein) 5 times a week for 2 weeks
# Description: cells of DLBCL strain SU-DHL-4 (Code No. ACC 495, Deutsche Sammlung von Mikroorganismen and Zellkulturen GmbH) suspended in a 1:1 mixed solution of PBS and matrigel (CORNING Code No. 354234) were transplanted subcutaneously to the ventral side of a male SCID mouse. Eighteen days after the transplantation, the body weight and the tumor diameter were measured, the tumor volume was calculated by the following formula, and the mice were divided into two groups (n=5) so that the average tumor volume of each group was equal.
# (§1) [Tumor volume (mm^3)]=[Tumor long diameter (mm)]×[Tumor short diameter (mm)]^2×0.5
# The test was conducted in two groups, a vehicle administration group and a compound 1a administration group (compound administration group). To the compound 1a administration group, a solution of compound 1a dissolved in 30% DMSO/3% Tween 80/physiological saline so as to give a final concentration of 0.6 mg/mL was administered intravenously (tail vein) at 5 mL/kg (3 mg/kg) 5 times a week for 2 weeks. To the vehicle administration group, 30% DMSO/3% Tween 80/physiological saline was administered intravenously (tail vein) at 5 mL/kg on the same schedule as the compound 1a administration group. After the start of the test, body weight and tumor diameter were measured twice a week. The tumor volume on each measurement day was calculated by the above formula. The tumor growth rate (hereinafter referred to as V/VO) was calculated by dividing the tumor volume V on each measurement day by the tumor volume VO on the test start day (Day 0). The T/C was calculated by dividing the average value (T) of V/VO of each group by the average value (C) of the vehicle administration group.
# [2] = tested on: SU-DHL-4 subcutaneously transplanted tumor; assay: Antitumor effect on subcutaneous transplant model in SCID mouse, DLBCL strain SU-DHL-4, compound 1b (Test Example 9); type: in vivo; conditions: for Tumor Volume (mm^3): compound 1b 10 mg/kg i.v. (tail vein) once on the test start day; for Tumor Volume (mm^3) / Body Weight: male SCID mouse; for Tumor Volume (mm^3) / Body Weight / V/V0 (tumor growth rate): mean of n=5; for T/C: V/V0 of group divided by vehicle group
# Description: 1×10^7 cells of DLBCL strain SU-DHL-4 (Code No. ACC 495, Deutsche Sammlung von Mikroorganismen and Zellkulturen GmbH) suspended in a 1:1 mixed solution of PBS and matrigel (CORNING Code No. 354234) were transplanted subcutaneously on the ventral side of male SCID mouse. 14 days after the transplantation, the body weight and tumor diameter were measured, the tumor volume was calculated by the following formula, and the mice were divided into two groups (n=5) so that the average tumor volume of each group was equal. E-workbook software (ID Business Solutions) was used for grouping and measurement.
# as §1
# To the compound 1b administration group, a solution of compound 1b dissolved in 30% DMSO/3% Tween 80/physiological saline so as to give a final concentration of 2 mg/mL was administered intravenously (tail vein) at 5 mL/kg (10 mg/kg) once on the test start day. To the vehicle administration group, 30% DMSO/3% Tween 80/physiological saline was administered intravenously (tail vein) at 5 mL/kg in the same schedule as in the compound 1b administration group. After the start of the test, body weight and tumor diameter were measured twice a week. The tumor volume on each measurement day was calculated by the above formula. The tumor growth rate (hereinafter referred to as V/VO) was calculated by dividing the tumor volume V on each measurement day by the tumor volume VO on the test start date (Day 0). The T/C was calculated by dividing the average value (T) of V/VO of each group by the average value (C) of the vehicle administration group.
# [3] = Day 0, compound 1a 3 mg/kg i.v. 5 times a week for 2 weeks
# [4] = Day 3, compound 1a 3 mg/kg i.v. 5 times a week for 2 weeks
# [5] = Day 7, compound 1a 3 mg/kg i.v. 5 times a week for 2 weeks
# [6] = Day 10, compound 1a 3 mg/kg i.v. 5 times a week for 2 weeks
# [7] = Day 14, compound 1a 3 mg/kg i.v. 5 times a week for 2 weeks
# [8] = Day 18, compound 1a 3 mg/kg i.v. 5 times a week for 2 weeks
# [9] = compound 1a 3 mg/kg i.v. 5 times a week for 2 weeks, SCID mouse
# [10] = Day 0, compound 1b 10 mg/kg i.v. once
# [11] = Day 4, compound 1b 10 mg/kg i.v. once
# [12] = Day 7, compound 1b 10 mg/kg i.v. once
# [13] = Day 10, compound 1b 10 mg/kg i.v. once
# [14] = Day 14, compound 1b 10 mg/kg i.v. once
# [15] = Day 17, compound 1b 10 mg/kg i.v. once
# [16] = compound 1b 10 mg/kg i.v. once, SCID mouse
structure (smiles),measurement,setting,value
"CCC(=O)N1c2ccccc2[C@H](Nc2ccc(C(=O)NCCCNC(=O)c3ccc(N[C@@H]4C[C@H](C)N(C(=O)CC)c5ccccc54)cc3)cc2)C[C@@H]1C (relative stereo) [Compound 1a, N,N′-(Propane-1,3-diyl)bis(4-{[(2S*,4R*)-2-methyl-1-propionyl-1,2,3,4-tetrahydroquinolin-4-yl]amino}benzamide)]",T/C,[1]; [3],1.00
same,Body Weight,[1]; [3],24.56 g
same,V/V0 (tumor growth rate),[1]; [3],1.00
same,Tumor Volume (mm^3),[1]; Day 0,246.14 mm^3
same,T/C,[1]; [4],0.71
same,Body Weight,[1]; [4],25.36 g
same,V/V0 (tumor growth rate),[1]; [4],1.15
same,Tumor Volume (mm^3),[1]; Day 3,284.29 mm^3
same,T/C,[1]; [5],0.48
same,Body Weight,[1]; [5],25.44 g
same,V/V0 (tumor growth rate),[1]; [5],1.29
same,Tumor Volume (mm^3),[1]; Day 7,326.25 mm^3
same,T/C,[1]; [6],0.22
same,Body Weight,[1]; [6],25.14 g
same,V/V0 (tumor growth rate),[1]; [6],0.85
same,Tumor Volume (mm^3),[1]; Day 10,214.74 mm^3
same,T/C,[1]; [7],0.17
same,Body Weight,[1]; [7],25.74 g
same,V/V0 (tumor growth rate),[1]; [7],0.89
same,Tumor Volume (mm^3),[1]; Day 14,224.55 mm^3
same,T/C,[1]; [8],0.16
same,Body Weight,[1]; [8],26.23 g
same,V/V0 (tumor growth rate),[1]; [8],1.30
same,Tumor Volume (mm^3),[1]; Day 18,325.61 mm^3
same,antitumor effect on SU-DHL-4 subcutaneously transplanted tumor,[1]; [9],potent antitumor effect
same,weight loss,[1]; [9],no weight loss was observed
"Cc1sc2c(c1C)C(c1ccc(C(=O)NCCCNC(=O)c3ccc(C4=N[C@@H](CC(=O)OC(C)(C)C)c5nnc(C)n5-c5sc(C)c(C)c54)cc3)cc1)=N[C@@H](CC(=O)OC(C)(C)C)c1nnc(C)n1-2 [Compound 1b, Di-tert-butyl 2,2′-[(6S,6′S)-({[propane-1,3-diylbis(azanediyl)]bis(carbonyl)}bis(4,1-phenylene))bis(2,3,9-trimethyl-6H-thieno[3,2-f][1,2,4]triazolo[4,3-a][1,4]diazepine-4,6-diyl)]diacetate]",Tumor Volume (mm^3),[2]; Day 0,208 mm^3
same,T/C,[2]; [10],1.00
same,Body Weight,[2]; [10],25 g
same,V/V0 (tumor growth rate),[2]; [10],1.00
same,Tumor Volume (mm^3),[2]; Day 4,101 mm^3
same,T/C,[2]; [11],0.31
same,Body Weight,[2]; [11],25 g
same,V/V0 (tumor growth rate),[2]; [11],0.49
same,Tumor Volume (mm^3),[2]; Day 7,49 mm^3
same,T/C,[2]; [12],0.12
same,Body Weight,[2]; [12],25 g
same,V/V0 (tumor growth rate),[2]; [12],0.24
same,Tumor Volume (mm^3),[2]; Day 10,66 mm^3
same,T/C,[2]; [13],0.11
same,Body Weight,[2]; [13],26 g
same,V/V0 (tumor growth rate),[2]; [13],0.32
same,Tumor Volume (mm^3),[2]; Day 14,87 mm^3
same,T/C,[2]; [14],0.12
same,Body Weight,[2]; [14],26 g
same,V/V0 (tumor growth rate),[2]; [14],0.42
same,Tumor Volume (mm^3),[2]; Day 17,122 mm^3
same,T/C,[2]; [15],0.13
same,Body Weight,[2]; [15],27 g
same,V/V0 (tumor growth rate),[2]; [15],0.59
same,antitumor effect on SU-DHL-4 subcutaneously transplanted tumor,[2]; [16],potent antitumor effect
same,weight loss,[2]; [16],no weight loss was observed
